Article PMC3784060 (Cancer Chemotherapy and Pharmacology, 2013)
Where two headings read alike, the source gives them in different places.

Experiments:
[1] = plasma pharmacokinetics (HPLC-MS/MS, population PK model); details: human, intravenous
Description: Blood samples for PK evaluations (3 mL each) were collected into prechilled K2 EDTA tubes at 0, 0.25–0.5, 1–2, and 4 h after the end of the 2-h infusion on day 1 of cycles 1, 2, and 3. Samples were kept on ice and centrifuged within 1 h of collection at 2,700g/4 °C for 10 min; separated plasma was immediately frozen on dry ice and then stored at −20 °C or below.
A 2-compartment PPK model was developed with data from two phase I studies in solid tumors [31, 32]. The model fits were conducted using NONMEM V, level 1.1 (GloboMax LLC), and a first-order conditional estimation method was employed for all model runs. The model included between-subject variability on clearance and volume of distribution, and mixed error terms.

[2] = cited from earlier work
[3] = system: Mcl-1, PARP cleavage in HL-60, MOLT-4, K562; experiment: Western blot, leukemia cell lines in vitro; type: cell-based, human; details: most prominent with 6 and 24 h exposure
Description: Primary leukemia cells for in vitro studies were isolated from BM or PB obtained from AML or ALL patients enrolled on a separate University of Maryland, Baltimore, IRB-approved protocol for tissue collection and not treated on this clinical study. The cells were isolated by gradient centrifugation using LSM (Mediatech) according to the manufacturer’s protocol. Cells were used either fresh or after viable freezing (FBS/10 % DMSO). Primary leukemia cells were cultured in RPMI 1640 (Invitrogen, Grand Island, NY, USA) supplemented with 15 % heat-inactivated FBS (HyClone Laboratories Inc., Red Bank, NJ, USA) and 200 mM L-Glutamine (Invitrogen). […]
For Western blot analysis, leukemia cell pellets (primary leukemia cells, HL-60, MOLT-4, K562) were washed with PBS and lysed with RIPA buffer (Sigma-Aldrich, St. Louis, MO, USA) supplemented with Complete Mini™ protease inhibitor and PHOStop™ phosphatase inhibitors (Roche). […] Blots were washed three times, and the signal was detected with Amersham™ ECL™ detection systems (GE Healthcare, Pittsburgh, PA, USA). […] The Western blot signals were measured by densitometry using ImageJ 1.45I software (NIH, Bethesda, USA).

[4] = system: primary AML cells (AML 08); experiment: Annexin V/PI apoptosis assay, primary AML cells; type: cell-based, human; details: 2, 20, and 200 nM
Description: Primary leukemia cells for in vitro studies were isolated from BM or PB obtained from AML or ALL patients enrolled on a separate University of Maryland, Baltimore, IRB-approved protocol for tissue collection and not treated on this clinical study. The cells were isolated by gradient centrifugation using LSM (Mediatech) according to the manufacturer’s protocol. Cells were used either fresh or after viable freezing (FBS/10 % DMSO). Primary leukemia cells were cultured in RPMI 1640 (Invitrogen, Grand Island, NY, USA) supplemented with 15 % heat-inactivated FBS (HyClone Laboratories Inc., Red Bank, NJ, USA) and 200 mM L-Glutamine (Invitrogen). Leukemia cell lines HL-60 (AML), MOLT-4 (T cell ALL), and K562 (chronic myelogenous leukemia [CML] in erythroid blast transformation) were purchased from American Type Culture Collection (ATCC, Manassas, VA, USA) and cultured in RPMI 1640 (Invitrogen) supplemented with 10 % heat-inactivated FBS (HyClone Laboratories Inc.) and 200 mM L-Glutamine (Invitrogen).

[5] = system: Mcl-1, phospho-Rb (Ser807/811), PARP cleavage; experiment: pharmacodynamic Western blot on patients' PBMC; type: in vivo, human
Description: For Western blot analysis, PB mononuclear cells (PBMC) were isolated by gradient centrifugation using lymphocyte separation medium (LSM) (Mediatech Inc., Manassas, VA, USA), and protein extracts were prepared and analyzed for the expression of Mcl-1, phospho-Rb (Ser807/811), and PARP cleavage as described below.
For Western blot analysis, leukemia cell pellets (primary leukemia cells, HL-60, MOLT-4, K562) were washed with PBS and lysed with RIPA buffer (Sigma-Aldrich, St. Louis, MO, USA) supplemented with Complete Mini™ protease inhibitor and PHOStop™ phosphatase inhibitors (Roche). Equal amounts of proteins up to 25 μg were separated on 4–12 % NuPAGE precast gels in 1X MOPS or 1X MES buffer (Invitrogen) and electro-blotted to PVDF membranes (Millipore, Billerica, MA, USA). The membranes were blocked with 5 % dry milk in 1X TBS/0.1 % Tween 20 for at least 1 h at room temperature. Blots were incubated with primary antibody (Ab) overnight at 4 °C, washed 3 times in TBS/0.1 % Tween 20, and then incubated with secondary Ab for 1 h at room temperature. Blots were washed three times, and the signal was detected with Amersham™ ECL™ detection systems (GE Healthcare, Pittsburgh, PA, USA). The following primary Abs were used: mouse anti-PARP (BD Pharmingen), rabbit anti-phospho-Rb (Ser807/811) and rabbit anti-Mcl-1 (both from Santa Cruz, Santa Cruz, CA, USA), rabbit anti-caspase 9 p35 and anti-caspase 3 (both from Cell Signaling, Danvers, MA, USA), and mouse anti-β-actin (Sigma-Aldrich). […] Secondary horseradish peroxidase-conjugated anti-mouse or anti-rabbit Abs were from Cell Signaling (Beverly, MA, USA). The Western blot signals were measured by densitometry using ImageJ 1.45I software (NIH, Bethesda, USA).

For `CCc1cnn2c(NCc3ccc[n+]([O-])c3)cc(N3CCCC[C@H]3CCO)nc12` [Dinaciclib], which Cmax [1] is on record?
The Cmax was greater than 4 µM.

What about the concentration at 2 h ([1]; 40 mg/m^2) of the same molecule?
Its concentration at 2 h is 1010 ng/mL.

What about the concentration at 2.25 h ([1]; 40 mg/m^2) of the same molecule?
The concentration at 2.25 h was 1100 ng/mL.

What about the concentration at 4 h ([1]; 40 mg/m^2) of the same molecule?
The concentration at 4 h was 118 ng/mL.

And the concentration at 6 h ([1]; 40 mg/m^2)?
The concentration at 6 h was 42.4 ng/mL.

And the AUC ([1]; 50 mg/m^2)?
Its AUC is 3560 ng·h/mL.

And the concentration at 2.25 h ([1]; 50 mg/m^2)?
The concentration at 2.25 h was 707 ng/mL.

And the concentration at 2.5 h ([1]; 50 mg/m^2)?
The concentration at 2.5 h was 354 ng/mL.

And the concentration at 3 h ([1]; 50 mg/m^2)?
The concentration at 3 h was 195 ng/mL.

What about the concentration at 4 h ([1]; 50 mg/m^2) of the same molecule?
Its concentration at 4 h is 139 ng/mL.

What about the concentration at 6 h ([1]; 50 mg/m^2) of the same molecule?
The concentration at 6 h was 36.7 ng/mL.

What about the AUC ([1]; 70 mg/m^2) of the same molecule?
Its AUC is 4980 ng·h/mL.

What about the concentration at 2 h ([1]; 70 mg/m^2) of the same molecule?
The concentration at 2 h was 1700 ng/mL.

What about the concentration at 2.25 h ([1]; 70 mg/m^2) of the same molecule?
Its concentration at 2.25 h is 724 ng/mL.

And the concentration at 2.5 h ([1]; 70 mg/m^2)?
Its concentration at 2.5 h is 457 ng/mL.

What about the concentration at 3 h ([1]; 70 mg/m^2) of the same molecule?
The concentration at 3 h was 307 ng/mL.

What about the concentration at 4 h ([1]; 70 mg/m^2) of the same molecule?
The concentration at 4 h was 125 ng/mL.

What about the concentration at 6 h ([1]; 70 mg/m^2) of the same molecule?
The concentration at 6 h was 52.2 ng/mL.

What about the “recommended phase II dose (RPTD)” value ([2]; 2-h infusion on days 1, 8, 15 every 28 days) of the same molecule?
The value was 12 mg/m^2.

And the “recommended phase II dose (RPTD)” value ([2]; 2-h infusion once every 21 days)?
The value was 50 mg/m^2.

What about the average dinaciclib concentration ([2]; 8-h continuous infusion, 7.4–50 mg/m^2, preliminary) of the same molecule?
The average dinaciclib concentration was 200–1,031 nM.

And the average dinaciclib concentration ([2]; 24-h continuous infusion, 7.4–14.6 mg/m^2, preliminary)?
Its average dinaciclib concentration is 82.3 to 184 nM.

What about the “Mcl-1 expression and PARP cleavage” value [3] of the same molecule?
Its value is “down-regulates the expression of the anti-apoptotic protein Mcl-1 independently of caspases and induces PARP cleavage”.

What about the “apoptosis (AnnexinV/PI flow cytometry)” value [4] of the same molecule?
The value was “induced apoptosis in primary AML cells (AML 08) in a time- and concentration-dependent manner”.

And the “down-regulation of Mcl-1” value ([5]; PBMC 4 h after end of infusion, 4 specimens)?
Its value is 34–76%.

What about the PARP cleavage ([5]; PBMC 4 h post-treatment) of the same molecule?
The PARP cleavage was “Induction of PARP cleavage was also observed at 4 h”.

And the Mcl-1 expression ([5]; PBMC 4 h post-treatment, 1 AML and 3 ALL patients)?
Its Mcl-1 expression is “decrease in Mcl-1 was seen in all specimens”.

What about the Mcl-1 expression ([5]; PBMC 24 h post-treatment) of the same molecule?
Its Mcl-1 expression is “returned to baseline by 24 h”.

What about the “p-Rb (Ser807/811)” value ([5]; PBMC, 2 patients had almost undetectable baseline p-Rb) of the same molecule?
Its value is “Decline in p-Rb was observed in 1 patient”.
